# Source: PubChem BioAssay (NCI)
# Several values for one entry are separate records, joined by “and”; a condition that tells them apart may be missing. Equal entries are not always repeated.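 Following 48 hours of exposure in 96-well plates, responses at five concentrations were used to interpolate endpoints linearly. The concentration for 50% growth inhibition is given as GI50. Definition used: TGI = concentration required for complete inhibition of growth.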
# System: MDA-MB-468 breast
# Test: DTP human tumour cell line panel, 48 h
SMILES,GI50,TGI
COc1cc(-c2nn(-c3cccc(NC(=O)Nc4ccc(Cl)c(C(F)(F)F)c4)c3)cc2-c2ccncc2)ccc1Cl,833 nM,4420 nM
COc1ccc(C(C)=C(c2ccc(OCCN3CCCCCC3)cc2)c2ccc(OCCN3CCCCCC3)cc2)cc1,806 nM,3050 nM
CCOC(=O)c1[nH]c2cc(Cl)ccc2c1[C@@H](C(=O)NC(C)(C)C)N(CC)C(=O)CCCCC#Cc1cccc2c1CN(C1CCC(=O)NC1=O)C2=O (some centres undefined),< 10 nM,< 14.2 nM
CC1COc2c(N3CCN(C)CC3)c(F)cc3c(=O)c(C(=O)N/N=C/c4cc[nH]c4)cn1c23 (centres undefined),412 nM,1730 nM
Fc1cccc(COc2ccc(Nc3ncnc4onc(-c5ccccc5)c34)cc2)c1,116 nM,2160 nM
NC(=S)N/N=C/c1ccc(OC(=O)COc2cc(Cl)c(Cl)cc2Cl)cn1,2410 nM,8710 nM
CCC(CC)n1cnc2c(-c3cnc(N)cn3)nc(N3CC4CCC(C3)O4)nc21,189 nM,2810 nM
COc1ccc2c(c1)c(-c1nc(-c3cn(C)c4ccncc34)cs1)cn2C,1620 nM,3200 nM
COc1ccc(Br)cc1NC(=O)Nc1cccc2c1ccn2Cc1ccnc(N)c1,2850 nM and 4540 nM,12000 nM and > 10000 nM
COc1cnc2c(c1)C(=O)c1c-2n(CCCN2CCCC2)c(=O)c2cc([N+](=O)[O-])ccc12,27.1 nM,1030 nM
COC(=O)/C=C1/SC(=Nc2cccc(Cl)c2)N(CCc2c[nH]c3ccc(O)cc23)C1=O,1990 nM,4400 nM
CC1(C)N=C(N)N=C(N)N1c1ccc(CNC(=O)Nc2ccc(S(=O)(=O)F)c(Cl)c2)c(Cl)c1,689 nM,> 100000 nM
C=C(C)[C@@H]1CC[C@]2(CO)CC[C@]3(C)[C@H](CC[C@@H]4[C@@]5(C)CCCNC(C)(C)[C@@H]5CC[C@]43C)[C@@H]12,1660 nM,3380 nM
COc1ccc(Nc2nc(NCCNc3ccnc4cc(Cl)ccc34)nc(N3CCOCC3)n2)cc1,1620 nM,4030 nM
Cc1ccc2c(C(C[N+](=O)[O-])c3ccccc3)c(-c3ccccc3)[nH]c2c1 (centres undefined),12700 nM,> 95000 nM
COc1cc2nc(N3CCCN(C)CC3)nc(NC3CCN(Cc4ccccc4)CC3)c2cc1OC,1500 nM,3190 nM
O=C1c2c(c(=O)[nH]c3ccccc23)[C@H](c2ccccc2)[C@@H]2CCCN12,2920 nM,14300 nM
Nc1ncc(-c2ccc3ncnc(Nc4cccc(Cl)c4)c3c2)cn1,56.5 nM,378 nM
CN(C)c1ccc(/C=N/NC(N)=S)nc1,2210 nM,8410 nM

SMILES,GI50,TGI
COC[C@H](NC(=O)c1cnc(C)s1)C(=O)N[C@@H](COC)C(=O)N[C@@H](Cc1ccccc1)C(=O)[C@@]1(C)CO1,14800 nM,38100 nM
Cc1ccc(CNc2ccc3nc(CCC4CCCCC4)[nH]c3c2)cc1,1520 nM,3350 nM
Cc1c(Cn2c(C)nc3c(C(=O)O)cc(N4CCOCC4)cc32)cccc1C(F)(F)F,26700 nM,> 100000 nM
CC(=O)O.CN1[CH-]N(Cc2ccc(C#N)cc2)c2ccccc21.[Ag+],12800 nM,28500 nM
CN1C(=O)CCC(N2C(=O)c3cccc(NCCOCCOCCNC(=O)c4cc5c(o4)C(=O)c4ccccc4C5=O)c3C2=O)C1=O (centres undefined),1760 nM,5040 nM
COc1ccc(-c2ncnc3c2ncn3CC#CCCl)cc1,2370 nM,7290 nM
C[C@@H]1C[C@H](N)C[C@H](c2ccncc2NC(=O)c2ccc(F)c(-c3c(F)cccc3F)n2)C1,4160 nM and 2910 nM,18300 nM and > 10000 nM
CCOC(=O)C(=Cc1ccc(C#N)cc1)C(=O)OCC,1980 nM,3840 nM
Cn1ncc(Cl)c1-c1cc(C(=O)N[C@H](CN)Cc2cccc(F)c2)sc1Cl,38.7 nM and 92 nM,582 nM and 1390 nM
Cc1cc2c(F)c(Oc3ncnc(Nc4ccc(N5C[C@@H](C)N[C@@H](C)C5)cc4)c3C#N)cc(F)c2[nH]1,2050 nM,4750 nM
C(=N\Nc1ncc(-c2cc3cc4c(cc3o2)OCO4)s1)/c1ccco1,2140 nM,7140 nM
COc1cc(CCC[P+](c2ccccc2)(c2ccccc2)c2ccccc2)c(OC)c2c1OCO2,292 nM,950 nM
COc1cc2nc(Nc3cccc(Cl)c3)nc(N)c2cc1OC,4370 nM,17300 nM
Cc1c(CN2CCN(C(=O)[C@H](C)O)CC2)sc2c(N3CCOCC3)nc(-c3cnc(N)nc3)nc12,124 nM and 79.3 nM,1140 nM and 456 nM
CCN1CCN(CCNc2nccc(-c3c(-c4ccc(F)c(O)c4)nc4occn34)n2)S1(=O)=O,4530 nM,> 100000 nM
CC1=C([Te]c2ccccc2)C(=O)c2ccccc2C1=O,442 nM,2120 nM
CCCc1nn(C)c2c(=O)[nH]c(-c3cc(S(=O)(=O)N4CCN(C)CC4)ccc3OCC)nc12,35000 nM,> 100000 nM
O=S(=O)(N=C1C(Cl)=C(Cl)C(=NS(=O)(=O)c2ccccc2)C(Cl)=C1Cl)c1ccccc1,15100 nM,35900 nM
